# Measured values from PubChem BioAssay (NCI).
#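 1) Cells in 96-well plates. 2) Compound, 48 h, 5 concentrations. 3) Linear interpolation between surrounding doses. 4) Unreached endpoint = highest concentration. The concentration for 50% growth inhibition is given as GI50. TGI is the concentration that stops growth completely.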
# How the values were obtained:
# Assay in all cases: NCI anticancer screen, dose series, 48 h
# DU-145 prostate = tested on: DU-145 prostate
# OVCAR-4 ovarian = tested on: OVCAR-4 ovarian
# LOX IMVI melanoma = tested on: LOX IMVI melanoma
# MOLT-4 leukemia = tested on: MOLT-4 leukemia
# SK-OV-3 ovarian = tested on: SK-OV-3 ovarian
# HCT-15 colon = tested on: HCT-15 colon
# NCI-H226 lung = tested on: NCI-H226 lung
# SN12C renal = tested on: SN12C renal
# KM12 colon = tested on: KM12 colon
# RXF 393 renal = tested on: RXF 393 renal
Structure (SMILES),GI50 (DU-145 prostate) [µM],TGI (DU-145 prostate) [µM],GI50 (OVCAR-4 ovarian) [µM],TGI (OVCAR-4 ovarian) [µM],GI50 (LOX IMVI melanoma) [µM],TGI (LOX IMVI melanoma) [µM],GI50 (MOLT-4 leukemia) [µM],TGI (MOLT-4 leukemia) [µM],GI50 (SK-OV-3 ovarian) [µM],TGI (SK-OV-3 ovarian) [µM],GI50 (HCT-15 colon) [µM],TGI (HCT-15 colon) [µM],GI50 (NCI-H226 lung) [µM],TGI (NCI-H226 lung) [µM],GI50 (SN12C renal) [µM],TGI (SN12C renal) [µM],GI50 (KM12 colon) [µM],TGI (KM12 colon) [µM],TGI (RXF 393 renal) [µM],GI50 (RXF 393 renal) [µM]
COC(=O)c1cc2c(cc1Cl)SC1=NN(C)S(=O)N1S2(=O)=O (stereo unspecified),> 100,> 100,> 100,> 100,> 100,> 100,> 100,> 100,> 100,> 100,> 100,> 100,> 100,> 100,> 100,> 100,> 100,> 100,–,–
CCc1cccc(C)c1NC(=O)CCc1nnc2s/c(=C\c3cccc4ccccc34)c(=O)n12,–,–,–,> 100,–,> 100,–,> 100,–,> 100,–,> 100,–,> 100,–,> 100,–,> 100,> 100,–
CCCCCCCC(=O)OCCCC1[C@]2(C)CC[C@@]3(C)C([C@H](C)CCC=C(C)C)CC[C@]3(C)C2CC[C@]12OC2(C)C (stereo partly specified),38.1,> 100,78.9,> 100,–,–,22.1,57.1,–,–,29.4,> 100,22.8,92.3,–,–,29.6,84.1,49.3,21.3
CCN1CCN(c2cc(C)nc(N(CCCNc3ccnc4cc(Cl)ccc34)Cc3ccc4c(c3)OCO4)n2)CC1,–,–,3.05,25.1,1.89,3.7,2.84,> 100,14.8,34.8,2.24,8.42,32.8,> 100,4.13,> 100,4.14,> 100,3.38,1.52
CCc1cccc(C)c1N1C(=O)C(=O)C(c2nc3ccccc3o2)C(=O)C1=O,–,–,–,> 100,–,–,–,> 100,–,> 100,–,> 100,–,> 100,–,> 100,–,> 100,–,–
O=C(O)c1cc(=O)c2c([nH]c3ccccc32)s1,–,–,–,> 100,–,–,–,> 100,–,> 100,–,> 100,–,–,–,> 100,–,> 100,> 100,–
O=C(Nc1ccc(F)cc1F)c1cc(Cl)ccc1O,3,69.6,0.636,> 100,1.73,12.6,–,–,0.722,4.85,1.54,18,1.29,5.73,1.29,8.1,2.31,7.68,5.1,1.37
CCCn1cnc2c(SCC(=O)O)nc(N)nc21,–,> 100,–,> 100,–,> 100,–,–,–,> 100,–,> 100,–,> 100,–,> 100,–,> 100,> 100,–
COC(=O)C1=C(CS(=O)c2ccc([N+](=O)[O-])cc2[N+](=O)[O-])C2C=CC1C2 (stereo unspecified),–,–,–,67.1,–,30.8,–,59.8,–,> 100,–,29.1,–,98.4,–,50.2,–,> 100,52.1,–
Cc1c(C(=O)/C=C/C=C/c2ccccc2)[n+](=O)c2ccccc2n1[O-],–,–,–,> 100,–,> 100,–,> 100,–,> 100,–,36.9,–,> 100,–,73.2,–,43.7,–,–
Cl/C(N=Nc1ccccc1)=N/Nc1ccccc1,–,–,–,> 100,–,> 100,–,> 100,–,> 100,–,–,–,> 100,–,> 100,–,> 100,> 100,–
O=c1nc(-c2ccccc2)cc(CC(O)c2ccc(Cl)c(Cl)c2)[nH]1 (stereo unspecified),–,–,–,> 100,–,> 100,–,> 100,–,> 100,–,> 100,–,> 100,–,> 100,–,> 100,> 100,–
CCOC(=O)CN(Cn1cncn1)Cn1cncn1,–,–,–,> 100,–,43.4,–,> 100,–,> 100,–,47.2,–,79.2,–,85.3,–,44.6,36,–
C[Si](C)(C)C(CCCCSc1ccccc1)(Sc1ccccc1)Sc1ccccc1,–,–,–,> 100,–,> 100,–,> 100,–,> 100,–,> 100,–,–,–,> 100,–,> 100,> 100,–
CC[C@@]1(OC(=O)CN)C(=O)OCc2c1cc1n(c2=O)Cc2c-1nc1cc3c(cc1c2CCl)OCO3,< 0.01,> 33.6,0.381,11.3,< 0.01,5.03,< 0.01,–,0.375,> 31.6,0.372,10.2,0.0201,0.397,< 0.0117,3.76,0.12,0.39,–,–
CCc1ccccc1NC(=O)/C=C/c1ccccc1,–,> 100,–,> 100,–,> 100,–,> 100,–,> 100,–,> 100,–,> 100,–,> 100,–,> 100,–,–
COC(=O)C1C(=O)CC2CCCCC21 (stereo unspecified),–,–,–,> 100,–,–,–,> 100,–,> 100,–,> 100,–,> 100,–,> 100,–,> 100,> 100,–
CN1CCN(CCOc2ccc(-c3cnc4c(-c5cccc(F)c5)cnn4c3)cc2)CC1,1.74,3.28,1.93,5.75,1.84,3.35,2.15,4.82,–,–,1.52,2.92,–,–,1.82,3.76,1.5,3.06,3.22,1.66
